Reference: patent US8586569B2, “Betulonic and betulinic acid derivatives” (priority 2006, dated 2013)

Test system: lymphocytes of patients suffering from chronic lymphoid leukaemia (human leukaemia cells)
Test: Sensibility of chronic lymphoid leukaemia lymphocytes in culture, 3H-thymidine incorporation (CPM) with or without PHA stimulation
Type: cell-based
Experimental: The sensibility of human leukaemia cells to acetoxymethyl 3β-(methoxypolyethylene glycol acetoxy)-lup-20(29)-en-28-oate 4c-β at different concentrations (from 0.04 mM up to 1 mM) was tested in vitro. The lymphocytes of three patients (4266866, 4266860 and 4262311) suffering from chronic lymphoid leukaemia were used in cell cultures.
On day 0: A multi-well plate was prepared per patient, each comprising 10^6 cells/well in a total volume of 1 ml. Cells, RPMI (cell growth medium) and test compound 4c-β were added in accordance with table 2 (all experiments were duplicated). The test compound dissolved in RPMI was added in the following amounts: 10 μl≡0.04 mM, 50 μl≡0.2 mM, 100 μl≡0.4 mM, 150 μl≡0.6 mM, 200 μl≡0.8 mM, and 250 μl≡1 mM.
On day 2: • 500 μl was taken from each well of plate 1 and put into a well of plate 2. • Plate 2: cells were tritiated with ^3H-thymidine for 4 hours; after the 4 hours incubation in the presence of radioactivity, plate 2 was harvested and radioactivity was counted. • Plate 1: 50 μl PHA was added to the 500 μl of each well of plate 1.
On day 5: • Plate 1: cells and PHA were tritiated with ^3H-thymidine for 4 hours; after the 4 hours incubation in the presence of radioactivity, plate 1 was harvested and radioactivity was counted.
PHA (a lectin named phytoagglutine, which is a mitogen activating living cells) was added to the cells in culture. PHA acts as a stimulating agent. All human lymphocytes have receptors for this type of lectin and all human lymphocytes undergo lymphoblastic transformation when stimulated by PHA. By adding PHA to the cells in culture, it was possible to measure whether the cells were still alive.
CPM stands for counts per minute and measures the disintegration of the tritiated ^3H-thymidine. Thus, CPM reflects the radioactivity of the cells' DNA having incorporated the tritiated ^3H-thymidine after mitosis. […]
On day 0: A multi-well plate was prepared, comprising 10^6 cells/well in a total volume of 1.5 ml. […] The test compound dissolved in RPMI was added in the following amounts: 125 μl≡0.5 mM and 250 μl≡1 mM. […]
The sensibility of human leukaemia cells to acetoxymethyl 3β-(methoxypolyethylene glycol acetoxy)-lupan-28-oate 8c-β at different concentrations (0.5 mM and 1 mM) was tested in vitro. The lymphocytes of one patient (4316182) suffering from chronic lymphoid leukaemia were used in cell cultures. […]
On day 2: • Plate 1: cells were tritiated with ^3H-thymidine for 4 hours; after the 4 hours incubation in the presence of radioactivity, plate 1 was harvested and radioactivity was counted. • Plate 2: cells were tritiated with ^3H-thymidine for 4 hours; after the 4 hours incubation in the presence of radioactivity, plate 2 was harvested and radioactivity was counted.

[1] = 0.5 mM and 1 mM, one patient, FIG. 4

Substance | activation of cells by PHA after contact with test compound (plate 1, PHA added day 2, counted day 5, 0.04 mM up to 1 mM, three patients, FIGS. 2a-c) | time within which cells contacted with test compound were killed (CPM after 3H-thymidine) (plate 2, 0.04 mM up to 1 mM, three patients, FIGS. 2a-c) [h] | killing of cells by test compound [1] | reactivation of cells by addition of PHA after contact with test compound [1]
Acetoxymethyl 3β-(methoxypolyethylene glycol acetoxy)-lup-20(29)-en-28-oate [compound 4c-β] | could no longer be activated by PHA | ≤ 48 |  | 
Acetoxymethyl 3β-(methoxypolyethylene glycol acetoxy)-lupan-28-oate [compound 8c-β] |  |  | killed the cells | unable to be reactivated by the addition of PHA
